Laboratory results from patent US5219879A, “Heterocyclic steroid compounds” (Du Pont Merck Pharmaceutical Company, priority 1991, dated 1993).

Assays:
[1] = system: cholesterol biosynthesis pathway; experiment: Assay of 14C-Acetate Incorporation into the Biosynthesis of Cholesterol (HepG2 cells); format: cell-based; conditions: Homo sapiens, 22 hours with test compound, then 14C-acetate for additional 2 hours, read-out: IC50, inhibition of the incorporation of 14C-acetate into the cholesterol biosynthesis pathway
Description: The HepG2 cells (a human hepatoma cell line) used in this example were obtained from the American Type Culture Collection (ATCC, Rockville, Md.). They were maintained in Dulbecco's Modified Eagles Medium and Ham's F12 Medium (1:1) supplemented with 10% heat inactivated Fetal Bovine serum, […] Herpes, 1 mM sodium pyruvate, 1×Non-essential Amino Acids (Gibco) and 2 mM L-glutamine.
The cells were harvested by washing cultures with 10 ml Hank's Balanced Salt Solution (2×) and incubating with 0.125% Trypsin in Versene (0.02% EDTA) for approximately one minute. After the cells are visibly rounded and loosened from the flask, 9 ml of the above medium is added. The cells are transferred to a […] culture dish and syringed up and down through a 20 gauge needle to break up aggregated clumps of cells. Cell cultures are plated at 0.1×10^6 /ml and 0.075×10^6 /ml in two 24 well plates, respectively, aliquoting 1 ml cells/well. The cells are allowed to attach for 24 hours (48 hours for the lower density plate) before washing 2× with HBSS and refed with 1 ml of the above medium with 1% Cabosil delipidated serum instead of Fetal Bovine Serum. The cells are treated with the test compounds after 24 hours of exposure to the delipidated serum media.
Chemicals are routinely prepared as a 10 mM solution in 100% ethanol or dimethyl sulfoxide (DMSO). All test compounds are added at 50 μM, 25 μM, 10 μM, 1 μM at a final concentration of 0.45% solvent, 0.25% Bovine Serum Albumin (BSA) suspension per well. The solvent BSA is sonicated for 10 seconds to ensure maximum solubilization before addition to the cells. Control wells receive solvent/BSA at the same concentrations as the drug treated cultures. […]
The eluted sterols are dried under nitrogen gas and resuspended in 150 μL ethanol. […] The samples are counted on the dual label ^3 H:^14 C program on the Beckman scintillation counter Model LS 7800.
The incorporation of both radiolabeled precursors into sterols is compared between the treated and non-treated (control) cultures and expressed as "% control" for each precursor. […]

Botrytis cinerea [2] = experiment: Example J: grape grey mold on grape seedlings; format: in vivo; conditions: 200 ppm, 100 = 100% disease control
Description: (§1) The test compounds were dissolved in acetone in an amount equal to 6% of the final volume and then suspended at a concentration of 200 ppm in purified water containing 250 ppm of the surfactant TREM 014 (polyhydric alcohol esters). This suspension was sprayed to the point of run-off on grape seedlings. The following day plants were inoculated with a spore suspension of Botrytis cinerea, the causal agent of grape grey mold, and incubated in a saturated humidity chamber at 20° C. for 96 hours when disease ratings were made. […] A dashed entry indicates the specified test was not performed.

Rhizoctonia solani = experiment: Example F: rice sheath blight on rice seedlings; format: in vivo; conditions: 220 ppm, 0 = no disease control, 100 = 100% disease control
Description: The test compounds were dissolved in acetone in an amount equal to 6% of the final volume and then suspended at a concentration of 220 ppm in purified water containing 250 ppm of the surfactant TREM 014 (polyhydric alcohol esters). This suspension was sprayed to the point of run-off on rice seedlings. The following day plants were inoculated with a mycelial suspension of Rhizoctonia solani, the causal agent of rice sheath blight, and incubated in a saturated humidity chamber at 27° C. for 48 hours and then in a growth chamber at 29° C. for 4 days, when disease ratings were made. […] A dashed entry indicates the specified test was not performed.

Botrytis cinerea [3] = experiment: Example K: cucumber grey mold on cucumber seedlings; format: in vivo; conditions: 200 ppm, 100 = 100% disease control
Description: The test compounds were dissolved in acetone in an amount equal to 6% of the final volume and then suspended at a concentration of 200 ppm in purified water containing 250 ppm of the surfactant TREM 014 (polyhydric alcohol esters). This suspension was sprayed to the point of run-off on cucumber seedlings. The following day plants were inoculated with a spore suspension of Botrytis cinerea, the causal agent of cucumber grey mold, and incubated in a saturated humidity chamber at 20° C. for 4 days when disease ratings were made. […] A dashed entry indicates the specified test was not performed.

Venturia inaequalis = experiment: Example A: apple scab on apple seedlings; format: in vivo; conditions: 200 ppm, sprayed the day before inoculation, 100 = 100% disease control
Description: as §1, with “apple” for “grape”, “Venturia inaequalis,” for “Botrytis cinerea,”, “casual” for “causal”, “apple scab,” for “grape grey mold,”, “24” for “96”, “hours and then in a growth chamber at 22° C. for 11 days,” for “hours”

Pyricularia oryzae = format: in vivo; conditions: rice seedlings, 200 ppm; 100 = 100% disease control
[4] = system: 3-Hydroxy-3-Methylglutaryl Coenzyme A Reductase (HMGR); experiment: 3-Hydroxy-3-Methylglutaryl Coenzyme A Reductase (HMGR) Suppression Assay; format: cell-based, Chinese Hamster (CHO cells); conditions: CHO cells; for IC50: 6 hr. at 37°, read-out: IC50 (amount of compound required to suppress HMGR activity by 50% relative to controls)
Description: The ability of the compounds of Formula I to suppress the activity of HMGR, the rate limiting enzyme of cholesterol biosynthesis, was tested as follows.
Chinese Hamster Ovary (CHO) cells were divided twice weekly and were maintained in McCoy's 5A medium supplemented with 1% carbosil delipidated Fetal Bovine System (FBS) (obtained from Gibco Laboratories, Chagrin Falls, Ohio). Cells were harvested during the logarithmic phase of growth and cell cultures were prepared by adding […] cells to each well in a 24 well cluster dish (obtained from Costar, Data Packaging Corp., Cambridge, Mass.) employing 1 ml of the above medium per each well. […] Control cells were treated in an identical fashion to those which received test compound, except they were incubated with the BSA and ethanol suspension only.
Specifically, the medium in each well was aspirated and the cells rinsed with a 50 mM solution of phosphate buffered saline (PBS). One ml of 30 mg/ml of digitonin in CSK buffer (prepared using 10 mM Pipes [piperazine-N,N'-bis (2-ethansulfonic) acid], 100 mM KCl, 2.5 mM MgCl2, 300 mM sucrose, 1 mM EGTA, pH 6.8) was added to each well and incubated for 10 min. at 22° to permeabilize the cells. The buffer was carefully aspirated and the wells were rinsed twice each time with 1 ml of PBS. HMGR activity was measured directly by adding 75 ml of PIB buffer (50 mM potassium phosphate, 1 mM Na2 EDTA, 10 mM dithiothreitol, pH 7.4) to each well and incubating the cells for 30 minutes at 37° as described above. […] The assay mixture was incubated for 30 min. at 37° and terminated by the addition of 70 ml of [^3 H]-mevalonicacid (35,000 DPM/assay), 0.15 mg/ml in 3N HCl.
The reaction was left to lactonize for an additional 30 min. at 37° or overnight at room temperature.
Reaction products were separated by thin layer chromatography on silica gel G (obtained from Analtech, Newark, Del.) developed in an unsaturated environment with acetone:benzene (3:2, v:v). The band corresponding to mevalonolactone was identified by exposure to iodine vapor and was scraped into counting vials. The extent of conversion of starting substrate, HMG-CoA, to mevalonic acid was determined by liquid scintillation counting in Biofluor (obtained from New England Nuclear, Boston, Mass.). Corrections for recovery and blank values were made for each sample. Protein determinations were made by Bio-Rad (Bio-Rad, Richmond, Calif.) dye binding assay according to the manufacturer's instruction using bovine serum albumin as standard. Cellular protein was solubilized from culture dishes by the addition of 20 μl of 16N KOH and assayed directly for protein amount. Suppression values are expressed as the amount of compound required to suppress HMGR activity by 50% relative to that of the controls.

[5] = system: Ersiphe graminis f. sp. tritici; experiment: Example D: wheat powdery mildew on wheat seedlings; format: in vivo; conditions: 200 ppm, 100 = 100% disease control
Description: The test compounds were dissolved in acetone in an amount equal to 6% of the final volume and then suspended at a concentration of 200 ppm in purified water containing 250 ppm of the surfactant TREM 014 (polyhydric alcohol esters). This suspension was sprayed to the point of run-off on wheat seedlings. […] A dashed entry indicates the specified test was not performed.

Botyrtis cinerea = experiment: Example C: bean grey mold on broad bean seedlings; format: in vivo; conditions: 200 ppm, 100 = 100% disease control
Description: The test compounds were dissolved in acetone in an amount equal to 6% of the final volume and then suspended at a concentration of 200 ppm in purified water containing 250 ppm of the surfactant TREM […] (polyhydric alcohol esters). This suspension was sprayed to the point of run-off on broad bean seedlings. The following day plants were inoculated with a spore suspension of Botyrtis cinerea, the causal agent of bean grey mold, and incubated in a saturated humidity chamber at 20° C. for 24 hours when disease ratings were made. […] A dashed entry indicates the specified test was not performed.

Puccinia recondita = experiment: Example G: wheat leaf rust on wheat seedlings; format: in vivo; conditions: 220 ppm, 100 = 100% disease control
Description: The test compounds were dissolved in acetone in an amount equal to 6% of the final volume and then suspended at a concentration of 220 ppm in purified water containing 250 ppm of the surfactant TREM 014 (polyhydric alcohol esters). This suspension was sprayed to the point of run-off on wheat seedlings. The following day plants were inoculated with a spore suspension of Puccinia recondita, the causal agent of wheat leaf rust, and incubated in a saturated humidity chamber at 20° C. for 48 hours and then in a growth chamber at 20° C. for 8 days, when disease ratings were made. […] A dashed entry indicates the specified test was not performed.

peanut seedlings = experiment: Example B: plant disease control on peanut seedlings; format: in vivo; conditions: 200 ppm, 100 = 100% disease control
Description: The test compounds were dissolved in acetone in an amount equal to 6% of the final volume and then suspended at a concentration of 200 ppm in purified water containing 250 ppm of the surfactant TREM […] (polyhydric alcohol esters). This suspension was sprayed to the point of run-off on peanut seedlings. The following day plants were incubated in a saturated humidity chamber at 22° C. for 24 hours, then in a high humidity chamber at 27° C. for 7 days, and then in a growth chamber at 29° C. for 7 days, when disease ratings were made.
In this table, a rating of 100 indicated 100% disease control, and a rating of 0 indicates no disease control relative to untreated plants that were inoculated and incubated as described in each Example. A dashed entry indicates the specified test was not performed.

C=C[C@@]12OC[C@H]([C@H](C)/C=C/[C@H](C)C(C)C)[C@@]1(C)CCC1=C2CC[C@H]2C[C@@H](O)CC[C@]12C [Example 29 (Compound 80), (22E)-15-Oxa-14α-vinyl-ergosta-8,22-dien-3β-ol]
IC50 [1]: > 50000 nM

C=C[C@@]12OC[C@H]([C@H](C)/C=C/[C@H](C)C(C)C)[C@@]1(C)CCC1=C2CC[C@H]2C(C)(C)[C@@H](O)CC[C@]12C [Example 28 (Compound 78), (22E)-4,4-Dimethyl-15-oxa-14α-vinylergosta-8,22-dien-3β-ol]
IC50 [1]: 50 nM

CC(C)CCC[C@@H](C)[C@H]1CN=C2C3=C(CC[C@@]21C)[C@@]1(C)CC[C@H](O)C(C)(C)[C@@H]1CC3 [Example 1817]
disease control rating, Example J (Botrytis cinerea [2]): 97%
disease control rating, Example F (Rhizoctonia solani): 0%
disease control rating, Example K (Botrytis cinerea [3]): 99%
disease control rating, Example A (Venturia inaequalis): 90%
disease control rating, Example E (Pyricularia oryzae): 1%
IC50 [4]: 500 nM
disease control rating, Example D [5]: 92%
disease control rating, Example C (Botyrtis cinerea): 97%
disease control rating, Example G (Puccinia recondita): 62%
disease control rating, Example B (peanut seedlings): 25%

CC[C@@]12OC[C@H]([C@H](C)CC[C@H](C)C(C)C)[C@@]1(C)CCC1=C2CC[C@H]2C[C@@H](O)CC[C@]12C [Example 30 (Compound 81), 14α-Ethyl-15-oxa-ergost-8-en-3β-ol]
IC50 [1]: 600 nM

CC(=O)O[C@H]1CC[C@]2(C)C3=C(CC[C@H]2C1(C)C)[C@]1(C=O)OC[C@H]([C@H](C)CCCC(C)C)[C@@]1(C)CC3 [Example 6, 3b-Acetoxy-15-oxa-32-oxolanost-8-ene]
IC50 [4]: 75 nM

CC(C)CCC[C@@H](C)[C@H]1C[S+]([O-])[C@@]2(C)C3=C(CC[C@]12C)[C@@]1(C)CC[C@H](O)C(C)(C)[C@@H]1CC3 (stereo partly drawn) [Example 1303]
IC50 [4]: 300 nM

C=C[C@@]12SC[C@H]([C@H](C)CCCC(C)C)[C@@]1(C)CCC1=C2CC[C@H]2C(C)(C)[C@@H](O)CC[C@]12C [Example 859, 4,4-Dimethyl-15-thia-14a-vinyl-5a-cholest-8-en-3b-ol]
IC50 [4]: 60 nM

CC(C)CCC[C@@H](C)[C@H]1CO[C@@]2([C@H](O)CO)C3=C(CC[C@]12C)[C@@]1(C)CC[C@H](O)C[C@@H]1CC3 [Example 16]
IC50 [4]: 2500 nM

CC(C)CCC[C@@H](C)[C@H]1CC[C@H]2[C@@H]3CC=C4C[C@@H](O)CC[C@]4(C)[C@H]3CC[C@]12C [cholesterol, reference compound]
effect on measured HMGR activity ([4]; tested under these same conditions): without effect
